Results taken from patent US20030109490A1, “Composite stimulating iNOS enzyme which induce immuno-reactant nitric oxide synthesis and process for preparing the same” (priority 2001, published 2003).

Key:
Macrophage RAW264.7 = experiment: NO production by macrophage RAW264.7 (microplate assay, griess reagent); type: cell-based; conditions: TAXOL 10 μg/ml
Method: The production of NO was investigated as the following experiment
Macrophage RAW264.7(ATCC) was cultivated in RPMI-1640 medium (RPMI-1640 GibcoBRL 23400-021) 1.62%, sodium hydrogen carbonate 0.2%, penicillin and streptomycin 1%) supplemented with 10% fetal bovine serum (GibcoBRL 26140-079, FBS). Cell was incubated at 37° C., 5% CO2, and 95% of humidified air (CO2 incubator).
The production of NO was determined by employing microplate assay and the production of nitrate (NO3^−) which is an oxidized product of NO was also determined Macrophage RAW264.7(3×10^5 cells/ml) was grown in Dulbecco's modified eagle's medium supplemented with 100 U/ml penicillin, 100 μg/ml streptomycin, 10% FBS, 6 g/L HEPES, 3.7 g/L sodium hydrogen carbonate. Cell was stimulated against various control groups. Medium itself, rIFN-γ+the composite of the present invention, rIFN-γ+the composite of the present invention+LPS were stimulated to measure the production of nitrate (NO3^−) with time. After macrophage was cultured with INFγ 10 U/ml for 6 hours, the cell was incubated with each of the composite of the present invention (1 μg/ml), LPS(10 μg/ml), and the composite of the present invention (1 μg/ml)+LPS(10 μg/ml) to induce the production of nitrate (NO3^−).
The medium was centrifuged (1000 ppm, 10 minutes) and 100 μl of the culture supernatant was reacted with 100 μl of griess reagent (37.5 mM sulphanilic acid, 12.5 mM N-(1-naphthyl) ethylenediamine dihydrochloride, 6.5 mM hydrogen chloride) at room temperature for 10 minutes. Absorbance was measured at 540 nm using spectrophotometer. After correlation coefficient between concentration of NO3^− and absorbance was determined using nitric acid salts having concentration of 0 to 5 μM, the concentration of NO3^−-produced from macrophage RAW264.7 was calculated.

[1] = anti-oxidative activity calculated as UV blocking value; type: physicochemical; conditions: 528 nm
Method: The anti-oxidative activity of the composite of this invention was measured at the wavelength of 528 nm using an UV-visible spectrometer (Cary, Virian Co., USA).

Macrophage RAW 264.7 = experiment: TNF-α secretion of macrophage RAW 264.7 (ELISA); type: cell-based; conditions: rIFN-γ alone, no LPS, no composite, 28 hrs
Method: Macrophage RAW 264.7 (3×10^5 cells/well) was cultivated in RPMI-1640 medium supplemented with each of rIFN-γ, composite of this invention, and rIFN-γ+LPS, and rIFN-γ+composite of this invention for 28 hrs.
The secretion amount of TNF-α in the aforementioned cell was measured at a wavelength of 405 nm using ELISA method. Prior to analysis, several drops of 0.05% PBS (phosphate-buffered saline) was added to Tween 20 for its washing. All specimens for analysis was cultivated at 37° C. for 2 hrs. Recombinant murine TNF-α, so diluted, was used as a standard solution. An assay plate was exposed to (containing biotylate murine TNF-α, avidine peroxide, 30% H2O2), a substrate solution of ABTS (Azinobis(3-ethylbenzothiazoline-6-sulfonic acid).

CC(=O)O[C@H]1C(=O)[C@@]2(C)[C@H]([C@H](OC(=O)c3ccccc3)[C@]3(O)C[C@H](OC(=O)[C@H](O)[C@@H](NC(=O)c4ccccc4)c4ccccc4)C(C)=C1C3(C)C)[C@]1(OC(C)=O)CO[C@@H]1C[C@@H]2O [TAXOL ®]
NO (Macrophage RAW264.7; rIFN-γ added, no LPS, 0 h): <4.0 µM
NO (Macrophage RAW264.7; rIFN-γ added, no LPS, 12 h): 30.56 ± 3.2 µM
NO (Macrophage RAW264.7; rIFN-γ and LPS added, 24 h): 45.1 ± 1.2 µM

O=C1O[C@H]([C@@H](O)CO)C(O)=C1O [Vitamin C]
anti-oxidative activity (UV blocking value) ([1]; 0.1% solution): 21.23%
anti-oxidative activity (UV blocking value) ([1]; 0.5% solution): 28.51%
anti-oxidative activity (UV blocking value) ([1]; 1% solution): 47.83%
anti-oxidative activity (UV blocking value) ([1]; 2% solution): 58.28%

B1: rIFN-γ: recombinant IFN-γ used to stimulate macrophage RAW264.7 (protein, UniProt P01580 23-155, looked up)
Interferon gamma: HGTVIESLESLNNYFNSSGIDVEEKSLFLDIWRNWQKDGDMKILQSQIISFYLRLFEVLKDNQAISNNISVIESHLITTFFSNSKAKKDAFMSIAKFEVNNPQVQRQAFNELIRVVHQLLPESSLRKRKRSRC
TNF-a (Macrophage RAW 264.7): 0.76 ± 0.02 ng/mL
